The values below come from patent US20240199571A1, “THIOPHENE COMPOUND AND APPLICATION THEREOF” (MEDSHINE DISCOVERY INC., priority 2021, published 2024).

Structures can show the parent of a compound that is named as a salt.

One assay deals with NCI-H1417 cells. Put plainly: Experiment 2: inhibition of NCI-H1417 cell proliferation (CellTiter-Glo, 10 days). Type of assay: cell-based. As to conditions: Homo sapiens, 240 h, 10 days incubation. As for the experimental part:
Experiment 2: Evaluation of Inhibitory Activity on NCI-H1417 Cell Proliferation
Experimental purpose: To test the inhibitory activity of test compounds on NCI-H1417 cell proliferation.
Experimental materials: RPMI 1640 medium, fetal bovine serum, Promega CellTiter-Glo reagent. The NCI-H1417 cell line was purchased from ATCC. Envision multilabel plate reader (PerkinElmer).
Experimental method: The compounds were dissolved to 10 mM and 5-fold diluted with DMSO in the compound plates, starting with a concentration of 2 mM. 3-fold serial dilution was performed with Bravo to 10 concentrations. Then 250 nL of the compound solution was transferred to the upper and lower double duplicate wells of a blank 384 cell plate with Echo. To each well containing the transferred 250 nL of DMSO/compound was added a cell suspension of 1000 cells/50 μL per well, and the compound was diluted 200-fold, i.e., resulting in an initial working concentration of 10 μM. The cell plate was incubated in a carbon dioxide incubator for 10 days. To the cell plate was added 25 μL of Promega CellTiter-Glo reagent per well and the mixture was shaken for 10 minutes at room temperature to stabilize the luminescence signal. Readings were performed on a PerkinElmer Envision multilabel plate reader.
Data analysis: Raw data were converted into inhibition rate using the formula: (Max−Ratio)/(Max−Min)*100%. The IC50 values could then be derived from four-parameter curve fitting. (derived from 205 mode in XLFIT5, iDBS)
The compounds were tested for inhibitory activity of compounds on NCI-H1417 cell proliferation, and the results are shown in Table 3.
A general note: ATP-based viability assays read luminescence as a measure of living cells.

Another assay has as its target human LSD1 (Homo sapiens (Human), UniProt O60341). Put plainly: Experiment 1B: in vitro LSD1 enzyme activity, enzyme-coupled fluorescence (HRP/Amplex Red), H3(1-21)K4me2 peptide 10 μM (Reaction Biology). Type of assay: biochemical. The settings on record: histone H3(1-21)K4me2 peptide 10 μM. The procedure:
Experiment 1B: Evaluation of Enzyme Activity
Testing unit: Reaction Biology Corp., USA.
The purpose of the assay was to test the in vitro inhibitory activity of the compounds against LSD1. The enzyme used in the assay was human LSD1, and the standard substrate was histone H3(1-21)K4me2 peptide (10 μM). The activity of the compounds was determined by the enzyme-coupling fluorescent method by the combined detection of H2O2 generated after the reaction of LSD1 by horseradish peroxidase (HRP) and the fluorescent reagent Amplex Red. Starting from 10 μM, the compounds were 3-fold diluted to detect the IC50 values of the compounds at 10 concentrations. The enzyme and substrate were incubated for 30 minutes before the compound was added to the substrate to start the reaction. Fluorescence detector: EnVision, excitation wavelength: Ex/Em=535/590 nM.

With `N#Cc1ccc(-c2cc(C(=O)N3CCC[C@@H](N)C3)sc2-c2ccc(NCC3(O)CCC3)c(F)c2)cc1F` [Hydrochloride of compound 120], the results for the IC50 in the assay with NCI-H1417 cells and at human LSD1 were 17.5 nM and 9.4 nM, respectively.

Regarding `N#Cc1ccc(-c2cc(C(=O)N3CCC[C@@H](N)C3)sc2-c2ccc(N3CCC(O)C3)cc2)cc1F` (some centres unmarked) [Hydrochloride of compound 85], the IC50 in the assay on NCI-H1417 cells was determined as 2.32 nM; at human LSD1 it was 14.2 nM.

Regarding `N#Cc1ccc(-c2cc(C(=O)N3CCC[C@@H](N)C3)sc2-c2ccc(N3CC[C@H](O)C3)c(F)c2)cc1F` [Hydrochloride of compound 96], the figures for the IC50 with NCI-H1417 cells and against human LSD1 were 4.79 nM and 20.6 nM, respectively.

Turning to `CN[C@@H]1CCCN(C(=O)c2cc(-c3ccc(C#N)c(F)c3)c(-c3ccc(N4CC[C@@H](O)C4)cc3)s2)C1` [Hydrochloride of compound 109], the IC50 with NCI-H1417 cells turned out to be 2.03 nM; against human LSD1, 10.7 nM.

The molecule `COc1ccc(-c2sc(C(=O)N3CCCNCC3C)cc2-c2ccc(C#N)c(F)c2)cc1F` (centres unmarked) [Hydrochloride of compound 25] registered an IC50 against human LSD1 of 63.9 nM.

Take `CN[C@@H]1CCCN(C(=O)c2cc(-c3ccc(C#N)c(F)c3)c(-c3ccc(N4CC[C@@H](O)C4)cc3F)s2)C1` [Hydrochloride of compound 113]: inhibition with NCI-H1417 cells was half-maximal at 3.98 nM (IC50).

Regarding `Cn1nnc2cc(-c3sc(C(=O)N4C5CCC4C(N)C5)cc3-c3ccc(C#N)c(F)c3)ccc21` (centres unmarked) [Compound 14], the IC50 with NCI-H1417 cells was 0.54 nM; against human LSD1, 5.37 nM.

Turning to `N#Cc1ccc(-c2cc(C(=O)N3CCC[C@@H](N)C3)sc2-c2ccc(N3CC[C@H](O)C3)cc2)cc1F` [Hydrochloride of compound 107], the IC50 was 3.31 nM in the assay on NCI-H1417 cells and 15.1 nM against human LSD1.

For the molecule `N#Cc1ccc(-c2cc(C(=O)N3CCC[C@@H](N)C3)sc2-c2cc3cn(CC4(O)CCC4)nc3cc2F)cc1F` [Hydrochloride of compound 95], the IC50 came out at 2.51 nM with NCI-H1417 cells and 10.1 nM against human LSD1.

With `N#Cc1ccc(-c2cc(C(=O)N3CCC[C@@H](N)C3)sc2-c2ccc3[nH]c(=O)oc3c2)cc1F` [Hydrochloride of compound 31], the results for the IC50 in the assay on NCI-H1417 cells and at human LSD1 were 11.3 nM and 26.7 nM, respectively.

As for `CC(C)(O)Cn1ncc2cc(-c3sc(C(=O)N4CCC[C@@H](N)C4)cc3-c3ccc(C#N)c(F)c3)cnc21` [Compound 60], the IC50 in the assay on NCI-H1417 cells is 2.36 nM; at human LSD1, 18.4 nM.

On to `Cn1c(=O)oc2ccc(-c3sc(C(=O)N4CCC[C@@H](N)C4)cc3-c3ccc(C#N)c(F)c3)cc21` [Hydrochloride of compound 34], for which the IC50 in the assay on NCI-H1417 cells was 9.92 nM; on human LSD1 it was 36.5 nM.

In the case of `CC(C)(O)Cn1cc2cc(-c3sc(C(=O)N4CCC[C@@H](N)C4)cc3-c3ccc(C#N)c(F)c3)ccc2n1` [Compound 58], the IC50 in the assay on NCI-H1417 cells came out at 3.56 nM; at human LSD1, 20.4 nM.

Regarding `N#Cc1ccc(-c2cc(C(=O)N3CCCNCC3)sc2-c2ccc(N3CC[C@@H](O)C3)cc2)cc1F` [Hydrochloride of compound 117], the results for the IC50 in the assay on NCI-H1417 cells and at human LSD1 were 40.2 nM and 19 nM, respectively.

For the molecule `N#Cc1ccc(-c2cc(C(=O)N3CCC[C@@H](N)C3)sc2-c2ccn3ccnc3c2)cc1F` [Compound 84], the values for the IC50 with NCI-H1417 cells and against human LSD1 were 25.9 nM and 13.2 nM, respectively.

For `COc1ccc(-c2sc(C(=O)N3CCC[C@H](N)C3)cc2-c2ccc(C#N)c(F)c2)cc1F` [Hydrochloride of compound 18], the concentration for half-maximal inhibition (IC50) in the assay on NCI-H1417 cells stood at 18.2 nM; on human LSD1, 6.6 nM.

For the molecule `N#Cc1ccc(-c2cc(C(=O)N3CCC[C@@H](N)C3)sc2-c2ccc(N3CC[C@@H](O)C3)c(F)c2)cc1F` [Hydrochloride of compound 101], the IC50 turned out to be 3.35 nM with NCI-H1417 cells and 28.7 nM at human LSD1.

In the assay on NCI-H1417 cells, `Cc1c2cc(-c3sc(C(=O)N4CCC[C@@H](N)C4)cc3-c3ccc(C#N)c(F)c3)ccc2nn1C` [Hydrochloride of compound 71] came in with an IC50 of 0.64 nM.

On to `N#Cc1ccc(-c2cc(C(=O)N3CCC[C@@H](N)C3)sc2-c2ccn3nccc3c2)cc1F` [Compound 75], for which the values for the IC50 in the assay with NCI-H1417 cells and at human LSD1 were 28 nM and 28.9 nM, respectively.

`N#Cc1ccc(-c2cc(C(=O)N3CCCNCC3)sc2-c2ccc(N3CC[C@H](O)C3)cc2)cc1F` [Hydrochloride of compound 116]: the IC50 at human LSD1 was found to be 9.27 nM.

Take `COc1ccc(-c2sc(C(=O)N3CCC4(CC3)COCC4N)cc2-c2ccc(C#N)c(F)c2)cc1F` (centres unmarked) [Hydrochloride of compound 23]: 76.8 nM corresponded to half-maximal inhibition against human LSD1 (IC50).

For `N#Cc1ccc(-c2cc(C(=O)N3CCCNCC3)sc2-c2cc3nnn(CC4(O)CCC4)c3c(F)c2F)cc1F` [Hydrochloride of compound 100], the values for the IC50 with NCI-H1417 cells and against human LSD1 were 0.37 nM and 14.1 nM, respectively.

On to `N#Cc1ccc(-c2cc(C(=O)N3CCC[C@@H](N)C3)sc2-c2ccn3cncc3c2)cc1F` [Compound 78], for which the IC50 at human LSD1 came out at 47.4 nM. That is a double-digit nanomolar value.

In the case of `COc1ccc(-c2sc(C(=O)N3CCCN(CC#N)CC3)cc2-c2ccc(C#N)c(F)c2)cc1F` [Compound 40], the IC50 in the assay with NCI-H1417 cells came to 18.7 nM; against human LSD1, 95.6 nM.

In the assay on NCI-H1417 cells, `N#Cc1ccc(-c2cc(C(=O)N3CCC[C@@H](N)C3)sc2-c2ccc3n[nH]cc3c2)cc1F` [Hydrochloride of compound 63] displayed a half-inhibitory concentration (IC50) of 28.6 nM.

As for `COc1ccc(-c2sc(C(=O)N[C@@H]3CCNC3)cc2-c2ccc(C#N)c(F)c2)cc1F` [Hydrochloride of compound 27], the IC50 at human LSD1 was determined as 48.2 nM.

Consider `N#Cc1ccc(-c2cc(C(=O)N3CCC[C@@H](N)C3)sc2-c2ccc(N)nc2)cc1F` [Hydrochloride of compound 49], for which it took 101 nM to reach half-maximal inhibition at human LSD1 (IC50).

Take `N#Cc1ccc(-c2cc(C(=O)N3CCC[C@@H](N)C3)sc2-c2cc3nnn(CC4(O)CCC4)c3c(F)c2F)cc1F` [Hydrochloride of compound 92]: the IC50 with NCI-H1417 cells stood at 0.43 nM; at human LSD1, 9.81 nM.

On to `COc1ccc(-c2sc(C(=O)N3CCCC(N(C)C)C3)cc2-c2ccc(C#N)c(F)c2)cc1F` (centres unmarked) [Hydrochloride of compound 26], for which the IC50 with NCI-H1417 cells was 6.87 nM; on human LSD1, 19.6 nM.

For the molecule `COc1ccc(-c2sc(C(=O)N3CC[C@@H](F)[C@@H](N)C3)cc2-c2ccc(C#N)c(F)c2)cc1F` [Hydrochloride of compound 20], the IC50 was determined as 32.3 nM with NCI-H1417 cells and 19.4 nM against human LSD1.

Consider `N#Cc1ccc(-c2cc(C(=O)N3CCC[C@@H](N)C3)sc2-c2ccc3nccn3c2)cc1F` [Compound 74], for which the IC50 against human LSD1 worked out at 33.2 nM.

As to `CS(=O)(=O)c1ccc(-c2sc(C(=O)N3CCC[C@@H](N)C3)cc2-c2ccc(C#N)c(F)c2)cc1` [Hydrochloride of compound 44], the IC50 in the assay on NCI-H1417 cells came out at 8.87 nM; at human LSD1 it was 70.6 nM.

On human LSD1, `N#Cc1ccc(-c2cc(C(=O)N3CCC[C@@H](N)C3)sc2-c2ccc3ncncc3c2)cc1F` [Hydrochloride of compound 66] returned an IC50 of 73.4 nM.

For `N#Cc1ccc(-c2cc(C(=O)N3CCC[C@@H](N)C3)sc2-c2ccc(N3CC[C@@H](O)C3)cc2F)cc1F` [Hydrochloride of compound 112], the IC50 in the assay with NCI-H1417 cells came out at 4.99 nM; against human LSD1, 5.84 nM.

For the molecule `CN[C@@H]1CCCN(C(=O)c2cc(-c3ccc(C#N)c(F)c3)c(-c3ccc(N4CC[C@H](O)C4)cc3)s2)C1` [Hydrochloride of compound 108], in the assay with NCI-H1417 cells, the midpoint of inhibition, the IC50, lay at 2.11 nM.

Molecule `N#Cc1ccc(-c2cc(C(=O)N3CCC[C@@H](N)C3)sc2-c2ccc(N3CC[C@H](O)C3)cc2F)cc1F` [Hydrochloride of compound 114] gave a half-inhibitory concentration (IC50) with NCI-H1417 cells of 5.18 nM. This IC50 lies about 2.5-fold higher than the previous one.

`Cn1cc(-c2sc(C(=O)N3CCC[C@@H](N)C3)cc2-c2ccc(C#N)c(F)c2)cn1` [Hydrochloride of compound 52] yielded an IC50 against human LSD1 of 251 nM.

For `CN[C@@H]1CCCN(C(=O)c2cc(-c3ccc(C#N)c(F)c3)c(-c3ccc(N4CC[C@H](O)C4)cc3F)s2)C1` [Hydrochloride of compound 115], in the assay on NCI-H1417 cells, the IC50 was 1.94 nM.

In the case of `COc1ccc(-c2sc(C(=O)N3CC[C@H](F)[C@@H](N)C3)cc2-c2ccc(C#N)c(F)c2)cc1F` [Hydrochloride of compound 19], half-maximal inhibition on human LSD1 (IC50) was put at 64.8 nM.

In the assay on NCI-H1417 cells, `CN(C)[C@@H]1CCCN(C(=O)c2cc(-c3ccc(C#N)c(F)c3)c(-c3cc4nnn(CC(C)(C)O)c4c(F)c3F)s2)C1` [Hydrochloride of compound 106] had an IC50 of 0.19 nM. This counts as sub-nanomolar.

Turning to `Cn1cc2ccc(-c3sc(C(=O)N4CCC[C@@H](N)C4)cc3-c3ccc(C#N)c(F)c3)cc2n1` [Hydrochloride of compound 65], half-maximal inhibition in the assay on NCI-H1417 cells (IC50) was put at 11.1 nM. This IC50 lies about 58-fold higher than the previous one.

`CN(C)[C@@H]1CCCN(C(=O)c2cc(-c3ccc(C#N)c(F)c3)c(-c3ccc4nn(C(C)(C)CO)cc4c3)s2)C1` [Hydrochloride of compound 105]: in the assay with NCI-H1417 cells, the concentration for half-maximal inhibition (IC50) turned out to be 6.14 nM.

By IC50 is commonly meant the concentration at which inhibition is half-maximal. Read a low IC50 as greater potency in that assay.
